Holding throughout (assay type): functional
One assay concerns Staphylococcus aureus. Put plainly: Antibacterial activity against Staphylococcus aureus ATCC 29213 by broth microdilution method.
Another assay has as its system Escherichia coli. As to the kind of experiment: Antibacterial activity against Escherichia coli ATCC 25922 by broth microdilution method.
The next assay deals with Pseudomonas aeruginosa. Put plainly: Antibacterial activity against Pseudomonas aeruginosa B 63230 by broth microdilution method. (Broth dilution looks for growth in wells or tubes with falling amounts of substance.)

This passage reports MIC results from ChEMBL document CHEMBL3351427, “Trimeric anthracenes from the endophytic fungus Stemphylium globuliferum” (J Nat Prod, 2014).

Molecules are shown by their SMILES. In brackets after ≈: the same amount, converted by molar mass.

A word on the MIC: it is the smallest concentration in the dilution series that meets the test's criterion for growth inhibition. A lower MIC goes with a more susceptible organism. For the compound `CN(C)[C@@H]1C(O)=C(C(N)=O)C(=O)[C@@]2(O)C(O)=C3C(=O)c4c(O)cccc4[C@@](C)(O)[C@H]3C[C@@H]12` [TETRACYCLINE], the MIC in the assay on Staphylococcus aureus amounted to 0.25 µg/mL (≈ 0.563 µM); against Escherichia coli, 0.5 µg/mL (≈ 1.13 µM); against Pseudomonas aeruginosa, 32 µg/mL (≈ 72 µM).
